In patent US20250127933A1, “Method of verifying effectiveness and stability of linker in Drug Delivery system and Structure therefor” (INDUSTRY-ACADEMIC COOPERATION FOUNDATION OF SUNCHON …, priority 2023, published 2025):

Key:
[1] = test system: Leucine aminopeptidase (LAP); assay: Enzymatic kinetic study of LAP reaction of activatable fluorescent probes; assay type: biochemical, porcine; settings: for Fluorophore released in LAP reaction (concentration): calculated from fluorophore calibration curves
Procedure: All spectroscopic readings were measured with BioTek Synergy™ H1 spectrophotometer, using 96 well microplate. A parent stock solution of probes was dissolved in DMSO to obtain 10 mM. Leucine aminopeptidase was dissolved in deionized water to obtain 1 mg/mL. All spectra measurements were carried out in PBS buffer solution (PBS buffer, 10 mM, pH 7.4, 37° C. The final volume in 96 well microplate was adjusted to 200 μL. RPMI 1640 was obtained from Thermo Scientific (Waltham, MA, USA). Bestatin hydrochloride (LAP inhibitor), DMSO and 2-mercaptoethanol were purchased from Sigma Aldrich (St. Louis, Mo, USA).
The kinetic study for LAP reaction was performed by incubation of 2 μg of LAP ([…]) with 1 μM probe in PBS buffer (10 mM, pH 7.4). The plate was incubated at 37° C. for 80 min with continuous shaking, and the emission spectra were recorded at the corresponding wavelength over time. A solution of LAP (2 μg/200 μL) was pretreated with bestatin (0, 1, 10, 50 and 100 μM) in PBS (10 mM, pH 7.4) at 37° C. for 30 min, and then 1 μM of probe was added. The mixture was incubated at 37° C., and the fluorescence was recorded on Synergy™ H1 using a 96-well microplate.
All reagents and solvents were obtained from commercial sources Sigma-Aldrich Chemical Co., Combi-Block, Tokyo Chemical Industries, Daejung Chemicals, and Alfa Aesar and used without purification. Anhydrous solvents were purchased from Sigma-Aldrich and used under dry nitrogen atmosphere. Ultrapure water was obtained from a water ultra-purification system. Completion of reaction was confirmed by thin layer chromatography (TLC) on Kiesegel 60F254 from Merck and all synthesized compounds were purified by flash column chromatography using ZEOprep 60 (40-63) […] silica gel from ZEOCHEM. ^1H and ^13C NMR spectra were measured on JEOL JNMECZ400s/L1 (400 MHZ) and CDCl3 or DMSO-d6 was used as the NMR solvents. The chemical shifts were quoted in parts per million (ppm) and the coupling constant (J) were reported in hertz unit (Hz). Chemical shifts (in ppm) were referenced to tetramethylsilane (δ=0 ppm) in CDCl3 as an internal standard. ^13C NMR spectra were reported in ppm referenced to the center line of the triplet at 77.0 ppm for CDCl3 or 39.5 ppm for DMSO-d6. All in vitro enzyme assays were performed by taking the absorbance and emission on Synergy™ H1 microplate reader from BioTek. Leucine aminopeptidase from porcine kidney and other enzymes were purchased from Sigma-Aldrich.

[2] = pH-dependent stability test; assay type: physicochemical; settings: 1 μM probe, pH 2 to 12, 25° C.
Procedure: Thermal stability was evaluated by the incubation of 1 μM of the probe in PBS buffer (pH 7.4) at different temperatures ranging from 25 to 45° C. for 20 min and reading fluorescence at each temperature. The pH stability test was performed by the incubation with 1 μM probe in different pH buffers (2 to 13) at 25° C. and recording fluorescence at each pH.

HepG2 cells [3] = assay: Confocal live cell imaging in HepG2 cells; assay type: cell-based
Procedure: HepG2 cells were maintained in DMEM medium containing 10% FBS and 1% antibiotics in the 15 μ-plate 96 well black (ibidi, Germany). HepG2 cells were incubated with or without 500 μM of bestatin, LAP inhibitor, for 1 h and subsequently treated with 1 μM of probe and Lyso-Tracker™ Red (Thermo Scientific, USA) for 1 h. The treated cells were washed three times with PBS and treated with 10 μM of DAPI (Thermo Scientific, USA) for 2 h. Imaged were collected by Leica confocal microscopy (TCS SP5 AOBS/Tandem, Leica, Germany). Lyso-Tracker™ Red was excited by 514 nm and detected by 570-620 nm, compounds were excited by 476 nm and detected by 505-545 nm, DAPI was excited by 405 nm and detected by 420-470 nm.

[4] = Ex vivo plasma stability in mice serum; assay type: in vitro ADME, C57BL/6 mice; settings: 10 μM probe; for time-dependent fluorescence emission in serum: C57/BL6 mice serum; for % survival rate of probe in serum: C57BL/6 mice serum, 37° C.
Procedure: Animal was treated strictly according to the guidelines for laboratory animal care and use issued by the Sunchon National University Institutional Animal Care and Use Committee (SCNU IACUC). Female C57/BL6 mice (7 weeks old), weighing about 17-20 g, were purchased from Orientbio (Orientbio Inc., Seongnam, Korea). Blood was collected from the posterior orbital plexus in normal mice and centrifuged (5000 rpm, 4° C., 5 minutes) to obtain serum. The stability study was performed by incubation of the fluorescent probe (10 μM) or rhodol fluorophore (0.1, 0.3, 1, 3 and 10 μM) with serum at 37° C. . . . The fluorescence was detected on Synergy™ H1 microplate reader.

[5] = test system: Leucine aminopeptidase (LAP); assay: Enzymatic kinetic study of LAP reaction of activatable fluorescent probes; assay type: biochemical, porcine; settings: 1 μM probe; LAP 1, 5, 10, 20, 50, 100 μg/mL; PBS pH 7.4, 80 min, 37° C.
[6] = target: T1, Leucine aminopeptidase (LAP) (Sus scrofa, UniProt P15145); assay: Selectivity test against various bioanalytes; assay type: biochemical, porcine; settings: 1 μM probe, 1 mM analytes or 1 U/mL enzymes, 0.05 U/mL LAP, PBS pH 7.4, 37° C., 1 h
T1 construct: purchased Sigma-Aldrich; host or cells: porcine kidney (tissue-derived enzyme)
T1 sequence (P15145 33-963 limits assumed): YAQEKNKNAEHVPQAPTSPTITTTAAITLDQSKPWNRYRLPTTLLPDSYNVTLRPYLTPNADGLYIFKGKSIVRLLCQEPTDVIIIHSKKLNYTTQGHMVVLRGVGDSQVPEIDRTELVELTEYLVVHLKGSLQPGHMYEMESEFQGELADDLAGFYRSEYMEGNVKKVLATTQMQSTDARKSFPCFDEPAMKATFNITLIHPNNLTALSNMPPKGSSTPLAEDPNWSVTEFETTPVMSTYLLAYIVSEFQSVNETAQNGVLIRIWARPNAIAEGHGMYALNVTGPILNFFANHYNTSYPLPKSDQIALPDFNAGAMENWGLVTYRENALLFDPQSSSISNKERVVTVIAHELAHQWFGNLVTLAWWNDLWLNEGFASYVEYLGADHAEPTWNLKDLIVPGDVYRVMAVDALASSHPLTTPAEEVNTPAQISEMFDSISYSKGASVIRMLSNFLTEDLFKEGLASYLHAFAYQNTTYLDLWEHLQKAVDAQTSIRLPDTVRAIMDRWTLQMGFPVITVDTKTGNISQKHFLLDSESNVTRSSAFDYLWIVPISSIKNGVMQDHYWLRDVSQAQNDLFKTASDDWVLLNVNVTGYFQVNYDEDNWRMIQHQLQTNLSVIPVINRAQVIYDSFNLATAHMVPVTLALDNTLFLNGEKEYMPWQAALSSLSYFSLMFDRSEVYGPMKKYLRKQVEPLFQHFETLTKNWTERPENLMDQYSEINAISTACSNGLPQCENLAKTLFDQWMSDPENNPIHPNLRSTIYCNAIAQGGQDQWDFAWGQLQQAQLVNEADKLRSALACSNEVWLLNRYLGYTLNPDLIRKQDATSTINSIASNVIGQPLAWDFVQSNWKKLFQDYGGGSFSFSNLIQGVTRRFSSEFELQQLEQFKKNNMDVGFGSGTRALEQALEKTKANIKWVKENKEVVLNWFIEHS
Procedure: 1 μM of probe was incubated with various bioanalytes containing 1 mM of NaOCl, H2O2, CaCl2), ZnCl2, KCl, NaCl, GSH, vitamin C, L-cystein, L-arginine, L-alanine and 1 U/mL of α-amylase, lysozyme, cellulase under 0.05 U/mL of LAP in PBS (10 mM, pH 7.4) at 37° C. for 1 h. The fluorescence was recorded on Synergy™ H1 microplate reader.

HepG2 cells [7] = assay: Kinetic and competitive study in HepG2 cells; assay type: cell-based; settings: bestatin pretreatment 0, 10, 100 μM; Rhodo-P2 2.0 μM
Procedure: HepG2 cells (3×10^4 cells/well) were seeded in black-walled, transparent bottomed 96-well plates and cultured overnight. […] Kinetic study was performed in Synergy™ H1 microplate reader.

[8] = test system: Leucine aminopeptidase (LAP); assay: Competitive assay with LAP inhibitor bestatin; assay type: biochemical, porcine; settings: bestatin pretreatment 0, 1, 10, 50, 100 μM; LAP 10 μg/mL; PBS pH 7.4, 37° C.
[9] = 1 μM probe, 10 μg/mL LAP, PBS pH 7.4, 37° C., 80 min

COc1ccc2c(c1)Oc1cc(NC(=O)[C@@H](N)CC(C)C)ccc1C21OC(=O)c2ccccc21 (stereo partly drawn) [Probe 2, (2S)-2-Amino-N-(3′-methoxy-3-oxo-3H-spiro[isobenzofuran-1,9′-xanthen]-6′-yl)-4-methylpentanamide]
Fluorophore released in LAP reaction (% yield) [1, 9]: 89.7%
kinetics of LAP reaction (time-dependent fluorescence emission) [1, 9]: faster kinetics than those of the corresponding P2 and P3 probes
Fluorophore released in LAP reaction (concentration) [1, 9]: ~0.897 µM
pH-dependent stability (fluorescence of fluorophore released by degradation) [2]: increased fluorescence emission in the pH range of 7-9
lysosomal colocalization in confocal live cell imaging (HepG2 cells [3]; 1 μM probe, LysoTracker Red DND-99, DAPI, HepG2 cells): colocalized into lysosomes with LysoTracker
time-dependent fluorescence emission in serum ([4]; 48 h): rapidly increased
% survival rate of probe in serum ([4]; 4 h p.i.): 45%
% survival rate of probe in serum ([4]; 48 h): 39%
LAP response at various concentrations of LAP [5]: nearly maximal responses at 10 μg/mL of LAP

COc1ccc2c(c1)Oc1cc(NC(=O)OCc3ccc(NC(=O)[C@@H](N)CC(C)C)cc3)ccc1C21OC(=O)c2ccccc21 (stereo partly drawn) [Probe 4, 4-((S)-2-Amino-4-methylpentanamido)benzyl methoxy-3-oxo-3H-spiro[isobenzofuran-1,9′-xanthen]-6′-(3′-yl)carbamate]
Fluorophore released in LAP reaction (% yield) [1, 9]: 76.9%
Fluorophore released in LAP reaction (concentration) [1, 9]: ~0.769 µM
LAP response / fluorophore release (in words) ([1]; LAP reaction, enzymatic study): high yields of LAP reactions
selectivity for LAP over other bioanalytes (fluorescence response) [6]: most biocompatible in selectivity tests as well as pH and thermal stability tests
pH-dependent stability (fluorescence of fluorophore released by degradation) [2]: no change in fluorescence emission according to the change in pH
time-dependent fluorescence emission in serum ([4]; 48 h): fluorescence emission with a gentle increasing slope
% survival rate of probe in serum ([4]; 48 h): 48%
LAP response at various concentrations of LAP [5]: nearly maximal responses at 10 μg/mL of LAP

CC(C)C[C@H](NC(=O)[C@@H](O)[C@H](N)Cc1ccccc1)C(=O)O [bestatin]
effect of bestatin on probe fluorescence in confocal live cell imaging (HepG2 cells [3]; bestatin 500 μM pretreatment for 1 h, Rhodo-P1 1 μM): only showed blue staining by DAPI without green fluorescence from the LAP probe
inhibition of Rhodo-P2 response in HepG2 cells (HepG2 cells [7]): concentration-dependent inhibition of Rhodo-P2
inhibition of LAP reaction of Rhodo-P2 (fluorescence emission) [8]: reduced fluorescence emission by released fluorophores in a concentration-dependent manner
